The record followed here is patent US20230365619A1, “CRYSTALLINE SODIUM CHOLESTERYL SULFATE” (Durect Corporation, priority 2020, published 2023).

The structures appear in SMILES notation.

The data set in a line: Dynamic Vapor Sorption/Desorption (DVS). The format is physicochemical. As to conditions: FIG. 4.

Consider `CC(C)CCC[C@@H](C)[C@H]1CC[C@H]2[C@@H]3CC=C4C[C@@H](OS(=O)(=O)[O-])CC[C@]4(C)[C@H]3CC[C@]12C.[Na+]` [Form F, sodium cholesteryl sulfate], for which the “weight change upon desorption (DVS)” value (desorption 95% to 5% relative humidity) was 20.8%. Further, the “weight gain on sorption (DVS)” value (ramping from 5% to 95% relative humidity, 10% RH increments, nitrogen purge) came out at 23.8%. Besides, the “DVS sorption profile (onset of weight gain)” value (ramping from 5% to 95% relative humidity) was “little weight gain until 55% relative humidity”.
